{"source": "patent US6797807B1", "about": "“Compounds and methods for cancer therapy” (Adherex Technologies, Inc., priority 1997, dated 2004)", "key": {"Adult rats": {"system": "Adult rats", "assay": "Miles assay for vascular permeability (Evans blue)", "format": "in vivo", "settings": "rat, 100 μg/ml peptide subdermal, OD at 620 nm; compared with PBS and the N-acetyl/C-amide peptides; FIG. 6, FIG. 8", "experimental": "The ability of an agent to modulate cell adhesion may generally be evaluated in vivo by assessing the effect on vascular permeability utilizing the Miles assay (McClure et al., J. Pharmacological & Toxicological Methods 32:49-52, 1994). Briefly, a candidate modulating agent may be dissolved in phosphate buffered saline (PBS) at a concentration of 100 μg/ml. Adult rats may be given 100 μl subdermal injections of each peptide solution into their shaved backs, followed 15 minutes later by a single 250 μl injection of 1% Evans blue dissolved in PBS into their tail veins. The subdermal injection sites may be visually monitored for the appearance of blue dye. Once the dye appears (about 15 minutes after injection), each subdermal injection site may be excised, weighed, and placed in 1 ml dimethylformamide for 24 hours to extract the dye. The optical density of the dye extracts may then be determined at 620 nm. In general, the injection of 0.1 ml of modulating agent (at a concentration of 0.1 mg/ml) into the backs of rats causes an increase of dye accumulation at the injection sites of at least 50%, as compared to dye accumulation at sites into which PBS has been injected.\nThe ability of cyclic and linear peptides to increase vascular permeability was assessed utilizing the Miles assay (McClure et al., J. Pharmacological & Toxicological Meth. 32:49-521994). The peptides were dissolved in phosphate buffered saline (PBS) at a concentration of 100 μg/ml. Adult rats were given 100 μl subdermal injections of each peptide solution into their shaved backs, followed 15 minutes later by a single 250 μl injection of 1% Evans blue dissolved in PBS into their tail veins. The subdermal injection sites were visually monitored for the appearance of blue dye. Once the dye appeared (15 minutes after injection), each subdermal injection site was excised, weighed, and placed in 1 ml dimethylformamide for 24 hours to extract the dye. The optical density of the dye extracts was determined at 620 nm. […]"}, "[1]": {"system": "Human neutrophils (polymorphonuclear leukocytes, PMN) on HUVEC monolayers", "assay": "Neutrophil (PMN) transendothelial migration across HUVEC monolayers with fMLP", "format": "cell-based", "settings": "10^-7 M fMLP, vs control with fMLP, FIGS. 10-11", "experimental": "A further assay for evaluating modulating agent activity involves determining an effect of a candidate agent on neutrophil migration on endothelial cells. Within such assays, endothelial cells (e.g., HUVEC) may be harvested and cultured using standard techniques. Cells are grown to confluence on 8.0 μm pore cell culture inserts (Falcon, Franklin Lake, N.J.) essentially as described by Ohno et al., Inflammation 21(3):313-24, 1997. Radiolabeled human neutrophils (polymorphonuclear leukocytes, PMN) are added to the apical surface of HUVEC monolayers and allowed to migrate. Migration assays are generally performed in the presence of 10^−7 M N-formyl-methionyl-leucyl-phenylalanine (fMLP), a chemoattractant that causes the leukocytes to undergo diapedesis. PMN migration may be quantitated as follows: [formula]\nHuman umbilical vein endothelial cells (HUVEC) were harvested from umbilical cords by 0.2% collagenase treatment essentially as described by Yoshida et al., Am. […]\nFor neutrophil diapedesis experiments, HUVEC were grown to confluence on 8.0 μm pore cell culture inserts (Falcon, Franklin Lake, N.J.) essentially as described by Ohno et al., inflammation 21(3):313-24, 1997. […] The cells were then washed twice with cold phosphate-buffered saline (PBS), spun at 250 g for 8 minutes to remove unincorporated radioactivity and resuspended in PBS. […]\nPMN migration was quantitated as follows: [formula]"}, "HUVEC": {"system": "HUVEC", "assay": "Immunofluorescence analysis of occludin in HUVEC", "format": "cell-based, human", "settings": "200 μg/mL peptide vs vehicle; FIG. 12B", "experimental": "For immunofluorescence analysis of occludin, HUVEC grown on glass coverslips were treated with vehicle (FIG. 12A) or 200 μg/mL peptide 76 (FIG. 12B). Cells were fixed with methanol and acetone and stained for occludin (Kevil et al., Microcirculation 5:197-210, 1998). Immunofluorescent staining was performed with anti-occludin polyclonal antibody (Zymed, San Francisco, Calif. used at a concentration of 4 μg/ml) and Cy3-conjugated goat anti-rabbit secondary Ab (Jackson Labs, Westgrove, Pa., used at a 1:250 dilution), and analyzed by fluorescence microscope. […] The photographs shown are representative of at least 20 different fields observed in each experiment and of three independent experiments. Bar=25 μm."}}}
{"substance": "H-CLYHYC-OH (also: cyclic, kind not given here) [Peptide 5]", "values": [{"measurement": "optical densities of dimethylformamide dye extracts from excised injection sites", "setting": "Adult rats", "result": "more dye was extracted"}, {"measurement": "fMLP-stimulated neutrophil transendothelial migration", "setting": "[1]", "result": "increase fMLP-stimulated transendothelial migration"}, {"measurement": "occludin staining and intercellular gaps in HUVEC", "setting": "HUVEC", "result": "gaps between adjacent endothelial cells and the lack of junctional proteins at these gaps"}]}
